Test results reported in patent US10035800B2 (AbbVie Inc., priority 2013, dated 2018).

Key:
BRD4 (BDII_E352-M457) = target: T1, BRD4 (BDII_E352-M457) (Homo sapiens, UniProt O60885); experiment: TR-FRET bromodomain binding assay, second bromodomain of BRD4; settings: TR-FRET assay protocol G (compound 0.92 μM-15 pM); 30 nM probe
T1 construct: protocol; made in house
Procedure: (§1) Bromodomain Domain Binding Assay
(§2) A time-resolved fluorescence resonance energy transfer (TR-FRET) assay was used to determine the affinities of compounds of the Examples listed in Table 1 for each bromodomain of BRD4. His-tagged first (BD1: amino acids K57-E168) and second (BD2: amino acids […]) bromodomains of BRD4 were expressed and purified. An Alexa647-labeled BET-inhibitor was used as the fluorescent probe in the assay.
(§3) Compound dilution series were prepared in DMSO via an approximately 3-fold serial dilution from one of the following: […]
(§4) Assay method E: 0.47 mM to 7.8 nM […]
(§5) Assay method G: 0.047 mM to 0.78 nM
(§6) or 5-fold serial dilution from one of the following: […]
(§7) Assay method B: 2.5 mM-797 nM […]
(§8) For Assay methods B, E, and G: Compound dilutions were added directly into white, low-volume assay plates (Perkin Elmer Proxiplate 384 Plus#6008280) using a Labcyte Echo in conjunction with Labcyte Access and Thermo Multidrop CombinL robotics. Compounds were then suspended in eight microliters (μL) of assay buffer (20 mM Sodium Phosphate, pH 6.0, 50 mM NaCl, 1 mM Ethylenediaminetetraacetic acid disodium salt dihydrate, 0.01% Triton X-100, 1 mM DL-Dithiothreitol) containing His-tagged bromodomain, Europium-conjugated anti-His antibody (Invitrogen PV5596) and Alexa-647-conjugated probe.
(§9) The final concentration of 1× assay mixture for assay methods A, B, C, D, E, F, and G contains 2% DMSO, 8 nM His-tagged bromodomain, 1 nM Europium-conjugated anti-His-tag antibody and 100 nM or 30 nM probe (for BDI or BDII, respectively) and compound concentration in the range of: 50 μM-16 nM for method A, 49.02 μM-15.63 nM for method B, 25 μM-423 pM for method C, 10 μM-169 pM for method D, 9.19 μM-150 pM for method E, 5 μM-85 pM for method F, and 0.92 μM-15 pM for method G.
(§10) After a one-hour equilibration at room temperature, TR-FRET ratios were determined using an Envision multilabel plate reader (Ex 340, Em 495/520).
(§11) TR-FRET data were normalized to the means of 24 no-compound controls (“high”) and 8 controls containing 1 μM un-labeled probe (“low”). Percent inhibition was plotted as a function of compound concentration and the data were fit with the 4 parameter logistic equation to obtain IC50s. Inhibition constants (Ki) were calculated from the IC50s, probe Kd and probe concentration. Typical Z′ values were between 0.65 and 0.75. The minimum significant ratio was determined to evaluate assay reproducibility (Eastwood et al., (2006) J Biomol Screen, 11: 253-261). The MSR was determined to be 2.03 for BDI and 1.93 for BDII, and a moving MSR (last six run MSR overtime) for both BDI and BDII was typically <3.

BRD4 (BDI_K57-E168) = target: T2, BRD4 (BDI_K57-E168) (Homo sapiens, UniProt O60885); experiment: TR-FRET bromodomain binding assay, first bromodomain of BRD4; settings: TR-FRET assay protocol G (compound 0.92 μM-15 pM); 100 nM probe
T2 construct: BD1: amino acids K57-E168; made in house
Procedure: as §1, §2, §3, §4, §5, §6, §7, §8, §9, §10, §11

Molecule | Ki (BRD4 (BDII_E352-M457)) [nM] | Ki (BRD4 (BDI_K57-E168)) [nM]
COC(=O)CCC1c2c[nH]c3c(=O)n(C)cc(c23)-c2cc(CS(C)(=O)=O)ccc2N1c1ccc(F)cc1F [Example 268, (R)-methyl 3-(4-(2,4-difluorophenyl)-10-methyl-7-((methylsulfonyl)methyl)-11-oxo-3,4,10,11-tetrahydro-1H-1,4,10-triazadibenzo[cd,f]azulen-3-yl)propanoate] | 16.4 | 82.8
Cn1cc2c3c(c[nH]c3c1=O)C(C(=O)NC1(C)CC1)N(c1ccc(F)cc1F)c1ccc(CS(C)(=O)=O)cc1-2 (racemic) [Example 167, 4-(2,4-difluorophenyl)-10-methyl-N-(1-methylcyclopropyl)-7-((methylsulfonyl)methyl)-11-oxo-3,4,10,11-tetrahydro-1H-1,4,10-triazadibenzo[cd,f]azulene-3-carboxamide] | 76.3 | 69.2
CCS(=O)(=O)c1ccc2c(c1)-c1cn(C)c(=O)c3[nH]cc(c13)CN2[C@@H](C)c1ccccc1 [Example 267, (S)-7-(ethylsulfonyl)-10-methyl-4-(1-phenylethyl)-3,4-dihydro-1H-1,4,10-triazadibenzo[cd,f]azulen-11(10H)-one] | 94.7 | 72.7
Cn1cc2c3c(c[nH]c3c1=O)C(C(=O)NCCCCc1ccccc1)N(c1ccc(F)cc1F)c1ccc(CS(C)(=O)=O)cc1-2 (stereo not drawn) [Example 168, 4-(2,4-difluorophenyl)-10-methyl-7-((methylsulfonyl)methyl)-11-oxo-N-(4-phenylbutyl)-3,4,10,11-tetrahydro-1H-1,4,10-triazadibenzo[cd,f]azulene-3-carboxamide] | 124 | 93.2
Cn1cc(-c2[nH]c3c(=O)n(C)cc4c3c2CN(c2ccccn2)c2ccc(S(C)(=O)=O)cc2-4)cn1 [Example 275, 10-methyl-2-(1-methyl-1H-pyrazol-4-yl)-7-(methylsulfonyl)-4-(pyridin-2-yl)-3,4-dihydro-1H-1,4,10-triazadibenzo[cd,f]azulen-11(10H)-one] | 0.85 | 2.09
CN1CCCC(N2Cc3c[nH]c4c(=O)n(C)cc(c34)-c3cc(CS(C)(=O)=O)ccc32)CC1 (stereo not drawn) [Example 189] | 22.3 | 5.82
CN1CCC(N2Cc3c[nH]c4c(=O)n(C)cc(c34)-c3cc(CS(C)(=O)=O)ccc32)C1 (stereo not drawn) [Example 187] | 50 | 5.74
N-(2-chloroethyl)-10-methyl-7-((methylsulfonyl)methyl)-11-oxo-10,11-dihydro-1H-1,4,10-triazadibenzo[cd,f]azulene-4(3H)-carboxamide [Example 66] | > 408 | > 238
Cn1cc2c3c(c[nH]c3c1=O)CN(S(=O)(=O)c1ccc(Oc3ccccc3)cc1)c1ccc(CS(C)(=O)=O)cc1-2 [Example 79, 10-methyl-7-((methylsulfonyl)methyl)-4-((4-phenoxyphenyl)sulfonyl)-3,4-dihydro-1H-1,4,10-triazadibenzo[cd,f]azulen-11(10H)-one] | > 408 | > 238
4-(1-ethylpiperidin-3-yl)-10-methyl-7-((methylsulfonyl)methyl)-3,4-dihydro-1H-1,4,10-triazadibenzo[cd,f]azulen-11(10H)-one [Example 190] | 30.9 | 26.7
Cn1cc2c3c(c[nH]c3c1=O)C(Cn1ccccc1=O)N(c1ccc(F)cc1F)c1ccc(CS(C)(=O)=O)cc1-2 (single isomer, unassigned) [Example 251] | 142 | > 238
10-methyl-7-((methylsulfonyl)methyl)-4-(1-((2-(trimethylsilyl)ethoxy)methyl)-1H-indazol-5-yl)-3,4-dihydro-1H-1,4,10-triazadibenzo[cd,f]azulen-11(10H)-one [Example 233] | 3.77 | 6.15

Further lines, results first:

Ki (BRD4 (BDII_E352-M457)) [nM] | Ki (BRD4 (BDI_K57-E168)) [nM] | Molecule
2.7 | 1.51 | CC1OCCC1N1Cc2c[nH]c3c(=O)n(C)cc(c23)-c2cc(CS(C)(=O)=O)ccc21 (stereo not drawn) [Example 180, 10-methyl-7-((methylsulfonyl)methyl)-4-(2-methyltetrahydrofuran-3-yl)-3,4-dihydro-1H-1,4,10-triazadibenzo[cd,f]azulen-11(10H)-one]
1.61 | 3.46 | Cn1cc2c3c(c[nH]c3c1=O)CN(C(=O)OCCF)c1ccc(CS(C)(=O)=O)cc1-2 [Example 96, 2-fluoroethyl 10-methyl-7-((methylsulfonyl)methyl)-11-oxo-10,11-dihydro-1H-1,4,10-triazadibenzo[cd,f]azulene-4(3H)-carboxylate]
19.9 | 41.7 | COc1ccc(C(=O)N2Cc3c[nH]c4c(=O)n(C)cc(c34)-c3cc(CS(C)(=O)=O)ccc32)cc1 [Example 110, 4-(4-methoxybenzoyl)-10-methyl-7-((methylsulfonyl)methyl)-3,4-dihydro-1H-1,4,10-triazadibenzo[cd,f]azulen-11(10H)-one]
126 | 216 | COc1ccccc1S(=O)(=O)N1Cc2c[nH]c3c(=O)n(C)cc(c23)-c2cc(CS(C)(=O)=O)ccc21 [Example 78, 4-((2-methoxyphenyl)sulfonyl)-10-methyl-7-((methylsulfonyl)methyl)-3,4-dihydro-1H-1,4,10-triazadibenzo[cd,f]azulen-11(10H)-one]
9.18 | 3.72 | CCOCCC(C)N1Cc2c[nH]c3c(=O)n(C)cc(c23)-c2cc(CS(C)(=O)=O)ccc21 (racemic) [Example 153, 4-(4-ethoxybutan-2-yl)-10-methyl-7-((methylsulfonyl)methyl)-3,4-dihydro-1H-1,4,10-triazadibenzo[cd,f]azulen-11(10H)-one]
25.5 | 112 | Cn1cc2c3c(c[nH]c3c1=O)CN(C(=O)c1cccc3ccccc13)c1ccc(CS(C)(=O)=O)cc1-2 [Example 114, 4-(1-naphthoyl)-10-methyl-7-((methylsulfonyl)methyl)-3,4-dihydro-1H-1,4,10-triazadibenzo[cd,f]azulen-11(10H)-one]
238 | > 238 | COc1cccc(CNC(=O)N2Cc3c[nH]c4c(=O)n(C)cc(c34)-c3cc(CS(C)(=O)=O)ccc32)c1 [Example 65, N-(3-methoxybenzyl)-10-methyl-7-((methylsulfonyl)methyl)-11-oxo-10,11-dihydro-1H-1,4,10-triazadibenzo[cd,f]azulene-4(3H)-carboxamide]
4.53 | 5.77 | Cn1cc2c3c(c[nH]c3c1=O)CN(C(=O)OCCCCCl)c1ccc(CS(C)(=O)=O)cc1-2 [Example 89, 4-chlorobutyl 10-methyl-7-((methylsulfonyl)methyl)-11-oxo-10,11-dihydro-1H-1,4,10-triazadibenzo[cd,f]azulene-4(3H)-carboxylate]
37 | 26.2 | CCOC(=O)C1CCC(CNC(=O)N2Cc3c[nH]c4c(=O)n(C)cc(c34)-c3cc(CS(C)(=O)=O)ccc32)CC1 (stereo not drawn) [Example 72, ethyl 4-((10-methyl-7-((methylsulfonyl)methyl)-11-oxo-3,4,10,11-tetrahydro-1H-1,4,10-triazadibenzo[cd,f]azulene-4-carboxamido)methyl)cyclohexanecarboxylate]
1.35 | 3.21 | COc1ccc(OC(=O)N2Cc3c[nH]c4c(=O)n(C)cc(c34)-c3cc(CS(C)(=O)=O)ccc32)cc1 [Example 97, 4-methoxyphenyl 10-methyl-7-((methylsulfonyl)methyl)-11-oxo-10,11-dihydro-1H-1,4,10-triazadibenzo[cd,f]azulene-4(3H)-carboxylate]
15.6 | 64.1 | Cn1cc2c3c(c[nH]c3c1=O)CN(C(=O)c1ccccc1)c1ccc(CS(C)(=O)=O)cc1-2 [Example 109, 4-benzoyl-10-methyl-7-((methylsulfonyl)methyl)-3,4-dihydro-1H-1,4,10-triazadibenzo[cd,f]azulen-11(10H)-one]
> 408 | > 238 | COc1ccc(S(=O)(=O)N2Cc3c[nH]c4c(=O)n(C)cc(c34)-c3cc(CS(C)(=O)=O)ccc32)cc1 [Example 76, 4-((4-methoxyphenyl)sulfonyl)-10-methyl-7-((methylsulfonyl)methyl)-3,4-dihydro-1H-1,4,10-triazadibenzo[cd,f]azulen-11(10H)-one]
